Experimental data reported in PubChem BioAssay (NCI).
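Briefly, cells in 96-well plates were exposed to five compound concentrations for 48 h, and endpoints were estimated by linear interpolation. At the TGI there is no net growth.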

Assays:
Assay in all cases: DTP human tumour cell line panel, 48 h
[1] = tested on: SF-539 CNS
[2] = tested on: SF-295 CNS
[3] = tested on: IGROV1 ovarian
[4] = tested on: OVCAR-4 ovarian
[5] = tested on: SW-620 colon
[6] = tested on: SNB-19 CNS
[7] = tested on: TK-10 renal
[8] = tested on: HCT-116 colon
[9] = tested on: A549 NSCLC
[10] = tested on: ACHN renal
[11] = tested on: CCRF-CEM leukemia
[12] = tested on: DU-145 prostate
[13] = tested on: OVCAR-5 ovarian
[14] = tested on: SN12C renal
[15] = tested on: NCI/ADR-RES ovarian
[16] = tested on: MCF7 breast
[17] = tested on: UACC-257 melanoma
[18] = tested on: T-47D breast
[19] = tested on: SK-MEL-5 melanoma
[20] = tested on: HCC-2998 colon
[21] = tested on: SK-MEL-28 melanoma
[22] = tested on: RXF 393 renal
[23] = tested on: OVCAR-8 ovarian
[24] = tested on: MALME-3M melanoma
[25] = tested on: PC-3 prostate
[26] = tested on: EKVX NSCLC
[27] = tested on: NCI-H460 lung
[28] = tested on: SK-MEL-2 melanoma
[29] = tested on: OVCAR-3 ovarian
[30] = tested on: CAKI-1 renal
[31] = tested on: HOP-62 NSCLC
[32] = tested on: KM12 colon
[33] = tested on: LOX IMVI melanoma
[34] = tested on: HS 578T breast
[35] = tested on: RPMI-8226 leukemia
[36] = tested on: M14 melanoma
[37] = tested on: MDA-N
[38] = tested on: SF-268 CNS
[39] = tested on: SNB-75 CNS
[40] = tested on: HCT-15 colon
[41] = tested on: MOLT-4 leukemia
[42] = tested on: A498 renal
[43] = tested on: SK-OV-3 ovarian
[44] = tested on: COLO 205 colon
[45] = tested on: HOP-92 NSCLC
[46] = tested on: NCI-H522 lung
[47] = tested on: HT29 colon
[48] = tested on: SR leukemia
[49] = tested on: K-562 leukemia
[50] = tested on: 786-0 renal
[51] = tested on: U251 CNS
[52] = tested on: NCI-H23 lung
[53] = tested on: MDA-MB-435
[54] = tested on: NCI-H226 lung
[55] = tested on: UO-31 renal
[56] = tested on: UACC-62 melanoma
[57] = tested on: HL-60(TB) leukemia
[58] = tested on: BT-549 breast
[59] = tested on: MDA-MB-231 breast

Measured: TGI

CCN(CC)c1ncnc2c1ncn2CCNC(CO)(CO)CO
> 100 µM: all assays above

O=c1[nH]c2cc(Cl)ccc2nc1/C(=N/Nc1ccccc1)C(O)c1ccco1 (stereo not drawn)
> 100 µM: all assays above
